Reference: BigSolDB 2.1

Work on `Cc1ccc(C(=O)O)cc1` yielded a solubility (mole fraction) (in acetone, 278.15 K) of 0.0354, a solubility (mole fraction) (in acetone, 283.15 K) of 0.041 and a solubility (mole fraction) (in acetone, 288.15 K) of 0.0469. The solubility (mole fraction) (in acetone, 293.15 K) was 0.0544, the solubility (mole fraction) (in acetone, 298.15 K) was 0.062 and the solubility (mole fraction) (in acetone, 303.15 K) was 0.0728. It also gave a solubility (mole fraction) (in acetone, 308.15 K) of 0.0838, a solubility (mole fraction) (in acetone, 313.15 K) of 0.0943 and a solubility (mole fraction) (in acetone, 318.15 K) of 0.11. For the same compound, the solubility (mole fraction) (in acetone, 323.15 K) was 0.125, the solubility (mole fraction) (in acetonitrile, 278.15 K) was 0.00596 and the solubility (mole fraction) (in acetonitrile, 283.15 K) was 0.0068. It also gave a solubility (mole fraction) (in acetonitrile, 288.15 K) of 0.00776, a solubility (mole fraction) (in acetonitrile, 293.15 K) of 0.0087 and a solubility (mole fraction) (in acetonitrile, 298.15 K) of 0.00976. It also gave a solubility (mole fraction) (in acetonitrile, 303.15 K) of 0.0112, a solubility (mole fraction) (in acetonitrile, 308.15 K) of 0.0127 and a solubility (mole fraction) (in acetonitrile, 313.15 K) of 0.0146. It also gave a solubility (mole fraction) (in acetonitrile, 318.15 K) of 0.0163, a solubility (mole fraction) (in acetonitrile, 323.15 K) of 0.0187 and a solubility (mole fraction) (in ethanol, 278.15 K) of 0.0272. For the same compound, the solubility (mole fraction) (in ethanol, 283.15 K) was 0.0308, the solubility (mole fraction) (in ethanol, 288.15 K) was 0.0346 and the solubility (mole fraction) (in ethanol, 293.15 K) was 0.0396. The solubility (mole fraction) (in ethanol, 298.15 K) was 0.0442, the solubility (mole fraction) (in ethanol, 303.15 K) was 0.05 and the solubility (mole fraction) (in ethanol, 308.15 K) was 0.0549. For the same compound, the solubility (mole fraction) (in ethanol, 313.15 K) was 0.0603, the solubility (mole fraction) (in ethanol, 318.15 K) was 0.0684 and the solubility (mole fraction) (in ethanol, 323.15 K) was 0.0765. The solubility (mole fraction) (in isopropanol, 278.15 K) was 0.0397, the solubility (mole fraction) (in isopropanol, 283.15 K) was 0.0437 and the solubility (mole fraction) (in isopropanol, 288.15 K) was 0.0488. The solubility (mole fraction) (in isopropanol, 293.15 K) was 0.0528, the solubility (mole fraction) (in isopropanol, 298.15 K) was 0.0588 and the solubility (mole fraction) (in isopropanol, 303.15 K) was 0.0648. For the same compound, the solubility (mole fraction) (in isopropanol, 308.15 K) was 0.0715, the solubility (mole fraction) (in isopropanol, 313.15 K) was 0.0779 and the solubility (mole fraction) (in isopropanol, 318.15 K) was 0.0868. It also gave a solubility (mole fraction) (in isopropanol, 323.15 K) of 0.0959, a solubility (mole fraction) (in methanol, 278.15 K) of 0.0354 and a solubility (mole fraction) (in methanol, 283.15 K) of 0.041. For the same compound, the solubility (mole fraction) (in methanol, 288.15 K) was 0.0485, the solubility (mole fraction) (in methanol, 293.15 K) was 0.0568 and the solubility (mole fraction) (in methanol, 298.15 K) was 0.0636. For the same compound, the solubility (mole fraction) (in methanol, 303.15 K) was 0.0744, the solubility (mole fraction) (in methanol, 308.15 K) was 0.0865 and the solubility (mole fraction) (in methanol, 313.15 K) was 0.0999. It also gave a solubility (mole fraction) (in methanol, 318.15 K) of 0.115, a solubility (mole fraction) (in methanol, 323.15 K) of 0.132 and a solubility (mole fraction) (in n-butanol, 278.15 K) of 0.0359. It also gave a solubility (mole fraction) (in n-butanol, 283.15 K) of 0.0396, a solubility (mole fraction) (in n-butanol, 288.15 K) of 0.0444 and a solubility (mole fraction) (in n-butanol, 293.15 K) of 0.051. It also gave a solubility (mole fraction) (in n-butanol, 298.15 K) of 0.0578, a solubility (mole fraction) (in n-butanol, 303.15 K) of 0.0651 and a solubility (mole fraction) (in n-butanol, 308.15 K) of 0.0735. The solubility (mole fraction) (in n-butanol, 313.15 K) was 0.0836, the solubility (mole fraction) (in n-butanol, 318.15 K) was 0.094 and the solubility (mole fraction) (in n-butanol, 323.15 K) was 0.105.
